Measurements: ChEMBL document CHEMBL1122453, “Structure-activity relationships in the antiinflammatory steroids: a pattern-recognition approach” (1983)

Organism: Homo sapiens
Experiment: Potency relative to fluocinolone 16,17-acetonide in the human vasoconstictor test
Type: functional

Compound	Potency
COC(=O)[C@@]1(OC(C)=O)[C@@H](C)CC2C3CCC4=CC(=O)C=CC4(C)[C@@]3(F)[C@@H](O)CC21C (some centres undefined)	385
CCOC(=O)[C@@]1(OC(C)=O)[C@@H](C)CC2C3CCC4=CC(=O)C=CC4(C)C3(F)[C@@H](O)CC21C (some centres undefined)	16
C[C@@H]1C[C@H]2[C@@H]3C[C@H](F)C4=CC(=O)C=C[C@]4(C)[C@@]3(F)[C@@H](O)C[C@]2(C)[C@@]1(O)C(=O)COC(=O)C(C)(C)C [FLUMETHASONE PIVALATE]	360
CCCC(=O)OC1(C(=O)CCl)[C@@H](C)CC2C3CCC4=CC(=O)C=C[C@]4(C)[C@@]3(F)[C@@H](O)C[C@@]21C (some centres undefined)	1166
CC(C)C(=O)OCC(=O)[C@@]1(O)C(C)CC2C3CCC4=CC(=O)C=CC4(C)[C@@]3(F)C(O)CC21C (some centres undefined)	90
CCCOC(=O)[C@@]1(O)[C@@H](C)CC2C3CCC4=CC(=O)C=CC4(C)C3(F)[C@@H](O)CC21C (some centres undefined)	5
CCCOC(=O)[C@@]1(OC(=O)CCC)[C@@H](C)CC2C3CCC4=CC(=O)C=CC4(C)C3(F)[C@@H](O)CC21C (some centres undefined)	40
CCCCC(=O)O[C@]1(C(=O)CO)[C@@H](C)C[C@H]2[C@@H]3CCC4=CC(=O)C=C[C@]4(C)[C@@]3(F)[C@@H](O)C[C@@]21C [BETAMETHASONE VALERATE]	360
CC(=O)O[C@]1(C(C)=O)CCC2C3C[C@H](F)C4=CC(=O)C=CC4(C)[C@@]3(F)C(O)CC21C (some centres undefined)	540
CCC(=O)O[C@]1(C(=O)COC(=O)C(C)C)CCC2C3C[C@H](F)C4=CC(=O)C=CC4(C)[C@@]3(F)C(O)CC21C (some centres undefined)	1080
CCCCC(=O)O[C@]1(C(=O)CO)CCC2C3C[C@H](F)C4=CC(=O)CCC4(C)[C@@]3(F)C(O)CC21C (some centres undefined)	360
CCCCC(=O)O[C@]1(C(=O)O)[C@@H](C)CC2C3CCC4=CC(=O)C=CC4(C)C3(F)[C@@H](O)CC21C (some centres undefined)	<1
CCCC(=O)OCC(=O)[C@@]1(OC(=O)CC)CCC2C3C[C@H](F)C4=CC(=O)C=CC4(C)[C@@]3(F)C(O)CC21C (some centres undefined)	1260
CC(C)C(=O)O[C@]1(C(=O)CO)C(C)CC2C3CCC4=CC(=O)C=CC4(C)[C@@]3(F)C(O)CC21C (some centres undefined)	470
CC(=O)OCC(=O)[C@@]1(O)[C@H](C)C[C@H]2[C@@H]3CCC4=CC(=O)C=C[C@]4(C)[C@@]3(F)[C@@H](O)C[C@@]21C [DEXAMETHASONE ACETATE]	8
CC(=O)OCC(=O)[C@@]12OC(C)(C)O[C@@H]1C[C@H]1[C@@H]3C[C@H](F)C4=CC(=O)C=C[C@]4(C)[C@@]3(F)[C@@H](O)C[C@@]12C [FLUOCINONIDE]	300
CCCC(=O)O[C@]1(C(=O)CO)CCC2C3C[C@H](F)C4=CC(=O)C=CC4(C)[C@@]3(F)C(O)CC21C (some centres undefined)	<360
CCC(=O)OCC(=O)[C@@]1(OC(=O)CC)[C@@H](C)C[C@H]2[C@@H]3CCC4=CC(=O)C=C[C@]4(C)[C@@]3(Cl)[C@@H](O)C[C@@]21C [BECLOMETHASONE DIPROPIONATE]	500
CCC(=O)O[C@]1(C(=O)CO)[C@@H](C)C[C@H]2[C@@H]3CCC4=CC(=O)C=C[C@]4(C)[C@@]3(F)[C@@H](O)C[C@@]21C	190
CCCCC(=O)O[C@]1(C(=O)CO)CCC2C3C[C@H](F)C4=CC(=O)C=CC4(C)[C@@]3(F)C(O)CC21C (some centres undefined)	360
C[C@]12C=CC(=O)C=C1CC[C@@H]1[C@@H]2[C@@H](O)C[C@@]2(C)[C@H]1CC[C@]2(O)C(=O)COP(=O)(O)O [PREDNISOLONE PHOSPHORIC ACID]	0.1
CCC(=O)O[C@]1(C(=O)CO)CCC2C3C[C@H](F)C4=CC(=O)C=CC4(C)[C@@]3(F)C(O)CC21C (some centres undefined)	<360

Compound	Potency
CCCC(=O)O[C@]1(C(=O)OCC)[C@@H](C)CC2C3CCC4=CC(=O)C=CC4(C)C3(F)[C@@H](O)CC21C (some centres undefined)	40
CCCCC(=O)O[C@]1(C(=O)COC(C)=O)CC[C@H]2[C@@H]3C[C@H](F)C4=CC(=O)CC[C@]4(C)[C@@]3(F)[C@@H](O)C[C@@]21C	360
CCC(=O)O[C@]1(C(C)=O)CCC2C3C[C@H](F)C4=CC(=O)C=CC4(C)[C@@]3(F)C(O)CC21C (some centres undefined)	900
CC(=O)OCC(=O)[C@@]1(O)[C@@H](C)C[C@H]2[C@@H]3CCC4=CC(=O)C=C[C@]4(C)[C@@]3(F)[C@@H](O)C[C@@]21C [BETAMETHASONE ACETATE]	18
CC(C)C(=O)O[C@]1(C(=O)CO)CCC2C3C[C@H](F)C4=CC(=O)C=CC4(C)[C@@]3(F)C(O)CC21C (some centres undefined)	<360
CCC(=O)O[C@]1(C(=O)COC(C)=O)CCC2C3C[C@H](F)C4=CC(=O)C=CC4(C)[C@@]3(F)C(O)CC21C (some centres undefined)	1080
CCC(=O)O[C@]1(C(C)=O)C(C)CC2C3CCC4=CC(=O)C=CC4(C)[C@@]3(F)C(O)CC21C (some centres undefined)	1170
CCC(=O)O[C@]1(C(=O)CO)[C@@H](C)C[C@H]2[C@@H]3CCC4=CC(=O)C=C[C@]4(C)[C@@]3(Cl)[C@@H](O)C[C@@]21C [BECLOMETHASONE 17-MONOPROPIONATE]	360
CC(=O)[C@H]1CC[C@H]2[C@@H]3C[C@H](C)C4=CC(=O)CC[C@]4(C)[C@H]3[C@@H](O)C[C@]12C [MEDRYSONE]	<1
CC(C)C(=O)OCC(=O)[C@@]1(OC(=O)C(C)C)CCC2C3C[C@H](F)C4=CC(=O)C=CC4(C)[C@@]3(F)C(O)CC21C (some centres undefined)	720
CC(=O)O[C@]1(C(=O)CCl)[C@@H](C)CC2C3CCC4=CC(=O)C=CC4(C)[C@@]3(F)[C@@H](O)CC21C (some centres undefined)	812
C[C@@H]1CC2C3CCC4=CC(=O)C=CC4(C)[C@@]3(F)C(O)CC2(C)[C@@]1(O)C(=O)COP(=O)(O)O (some centres undefined)	2
CC(=O)OCC(=O)[C@@]1(OC(C)=O)CCC2C3C[C@H](F)C4=CC(=O)C=CC4(C)[C@@]3(F)C(O)CC21C (some centres undefined)	360
CCCCC(=O)OCC(=O)[C@@]1(O)C(C)CC2C3CCC4=CC(=O)C=CC4(C)[C@@]3(F)C(O)CC21C (some centres undefined)	26
C[C@]12C=CC(=O)C=C1[C@@H](F)C[C@@H]1[C@@H]2[C@@H](O)C[C@@]2(C)[C@H]1CC[C@]2(O)C(=O)CO [FLUPREDNISOLONE]	1
CCCOC(=O)[C@@]1(OC(=O)CC)[C@@H](C)CC2C3CCC4=CC(=O)C=CC4(C)C3(F)[C@@H](O)CC21C (some centres undefined)	30
CCCC(=O)O[C@]1(C(=O)CO)C(C)CC2C3CCC4=CC(=O)C=CC4(C)[C@@]3(F)C(O)CC21C (some centres undefined)	168
CCC(=O)OCC(=O)[C@@]1(OC(=O)CC)[C@@H](C)C[C@H]2[C@@H]3CCC4=CC(=O)C=C[C@]4(C)[C@@]3(F)[C@@H](O)C[C@@]21C [BETAMETHASONE DIPROPIONATE]	1300
CCC(=O)O[C@]1(C(=O)CCl)[C@@H](C)C[C@H]2[C@@H]3CCC4=CC(=O)C=C[C@]4(C)[C@@]3(F)[C@@H](O)C[C@@]21C [CLOBETASOL PROPIONATE]	1869
CC(=O)O[C@]1(C(=O)CO)C(C)CC2C3CCC4=CC(=O)C=CC4(C)[C@@]3(F)C(O)CC21C (some centres undefined)	114
CCC(=O)O[C@]1(C(=O)OCCl)[C@@H](C)CC2C3CCC4=CC(=O)C=CC4(C)[C@@]3(F)[C@@H](O)CC21C (some centres undefined)	400
CCCC(=O)OCC(=O)[C@@]1(O)C(C)CC2C3CCC4=CC(=O)C=CC4(C)[C@@]3(F)C(O)CC21C (some centres undefined)	85

Compound	Potency
C[C@H]1C[C@H]2C3CCC4=CC(=O)C=C[C@]4(C)[C@@]3(F)[C@@H](O)C[C@]2(C)[C@@]1(O)C(=O)O (some centres undefined)	<1
CCCC(=O)O[C@]1(C(=O)OC)[C@@H](C)CC2C3CCC4=CC(=O)C=CC4(C)[C@@]3(F)[C@@H](O)CC21C (some centres undefined)	175
CCCC(=O)O[C@]1(C(=O)COC(=O)C(C)C)CCC2C3C[C@H](F)C4=CC(=O)C=CC4(C)[C@@]3(F)C(O)CC21C (some centres undefined)	1080
CC(=O)O[C@]1(C(=O)CO)CCC2C3C[C@H](F)C4=CC(=O)C=CC4(C)[C@@]3(F)C(O)CC21C (some centres undefined)	<360
CCC(=O)OCC(=O)[C@@]1(O)[C@@H](C)C[C@H]2[C@@H]3CCC4=CC(=O)C=C[C@]4(C)[C@@]3(F)[C@@H](O)C[C@@]21C	40
CC(=O)O[C@]1(C(=O)O)[C@@H](C)CC2C3CCC4=CC(=O)C=CC4(C)C3(F)[C@@H](O)CC21C (some centres undefined)	<1
CC1CC2C3CCC4=CC(=O)C=CC4(C)[C@@]3(Cl)C(O)CC2(C)[C@@]1(O)C(=O)CO (some centres undefined)	0.8
CC(=O)O[C@]1(C(=O)COC(=O)C(C)C)CCC2C3C[C@H](F)C4=CC(=O)C=CC4(C)[C@@]3(F)C(O)CC21C (some centres undefined)	720
CCC(=O)OCC(=O)[C@@]1(OC(=O)C(C)C)CCC2C3C[C@H](F)C4=CC(=O)C=CC4(C)[C@@]3(F)C(O)CC21C (some centres undefined)	900
CCCC(=O)O[C@]1(C(=O)COC(C)=O)CC[C@H]2[C@@H]3C[C@H](F)C4=CC(=O)C=C[C@]4(C)[C@@]3(F)[C@@H](O)C[C@@]21C [DIFLUPREDNATE]	1170
CCOC(=O)[C@@]1(OC(=O)CC)[C@@H](C)CC2C3CCC4=CC(=O)C=CC4(C)[C@@]3(F)[C@@H](O)CC21C (some centres undefined)	75
CC12C=CC(=O)C=C1[C@@H](F)CC1C3CC[C@](O)(C(=O)CO)C3(C)CC(O)[C@@]12F (some centres undefined)	<360
CCC(=O)O[C@]1(C(=O)O)[C@@H](C)CC2C3CCC4=CC(=O)C=CC4(C)C3(F)[C@@H](O)CC21C (some centres undefined)	<1
CC(C)C(=O)OC1(C(=O)CCl)[C@@H](C)CC2C3CCC4=CC(=O)C=CC4(C)[C@]3(F)[C@@H](O)CC21C (some centres undefined)	378
CC(=O)OCC(=O)[C@@]1(OC(=O)C(C)C)CCC2C3C[C@H](F)C4=CC(=O)C=CC4(C)[C@@]3(F)C(O)CC21C (some centres undefined)	720
CCCC(=O)O[C@]1(C(=O)COC(=O)CC)CCC2C3C[C@H](F)C4=CC(=O)C=CC4(C)[C@@]3(F)C(O)CC21C (some centres undefined)	1058
CC12CCC(=O)C=C1CCC1C2C(O)CC2(C)C1CC[C@]2(O)C(=O)COP(=O)(O)O (some centres undefined)	0.01
CCC(=O)O[C@]1(C(=O)COC(=O)C(C)(C)C)CCC2C3C[C@H](F)C4=CC(=O)C=CC4(C)[C@@]3(F)C(O)CC21C (some centres undefined)	720
CCCCC(=O)O[C@]1(C(=O)COC(C)=O)CCC2C3C[C@H](F)C4=CC(=O)C=CC4(C)[C@@]3(F)C(O)CC21C (some centres undefined)	720
CCC(=O)OCC(=O)[C@@]1(OC(=O)CC)CCC2C3C[C@H](F)C4=CC(=O)C=CC4(C)[C@@]3(F)C(O)CC21C (some centres undefined)	853
